Source: article PMC12188386, “Selective CBP/EP300 Bromodomain Inhibitors: Novel Epigenetic Tools to Counter TNF-α-Driven Inflammation” (JACS Au, 2025)
Converted amounts (≈) assume the structure as drawn.

Legend:
BRD4(1) = BRD4(1) (Homo sapiens, UniProt O60885); assay: BROMOscan bromoKdELECT; assay type: binding; conditions: commercial Bromoscan assay
Description: (§1) was used as the calibration curve. To obtain saturated solutions of the compounds of interest, in duplicates 4.4 µL of a 10 or 5 mM stock in DMSO was added to 436 µL Buffer (PBS, pH = 7.4), to give a final concentration of 100 or 50 µM. Samples were incubated on a shaker (500 rpm) at 37°C for 90 minutes and then filtered (Millex-GV 13 mm, 0.22 µm). 304 µL of the filtrate was mixed with 76 µL of acetonitrile on a dilution plate, from which 350 µL was transferred to a UV-plate and UV-absorption was read using a SpectraMax M5 (Molecular devices). The absorbance was blank-corrected and compared to the calibration curve to […]
(§2) solubility. The wavelengths used for the calibration curve are available in Table S4.
Sample preparation in CAPTISOL® […]
lower solubility (2) compounds respectively in a 12.5 w/v% CAPTISOL® solution in water. In a precisely tared vial, required amounts of compounds and CAPTISOL® were weighed out as solids. Based on the known density of 12.5 % CAPTISOL® solution (d = 1.05755 g/mL at 25 °C), the precise weight of the resulting solution and so the required amount of water by weight was calculated. The water was added portion wise with agitation, vortexing and sonication cycles in between additions. The saturated solutions were then filtered (Millex-GV 13 mm, 0.22 µm). In duplicates, aliquots of the filtrates were taken and diluted with blank 12.5 % CAPTISOL® water solution in either a 1:14 (higher sol. compounds) or 1:7 (lower sol. compounds) ratio, 350 µL was transferred to a 96-Well Plate (Greiner, UV-star) then UV absorption (240-400 nm, 10 nm steps) was measured using a SpectraMax M5 (Molecular devices). […] The calculated concentrations are available in Table S4. […]
The bromodomain concentration in the eluates was measured by qPCR.
Test compounds were prepared as 1000X stocks in DMSO and distributed by acoustic transfer (non-contact dispensing). […] KDs were determined using an 11-point 3-fold compound dilution series with one DMSO control point, and were calculated with a standard dose-response curve using the Hill equation: […]

[1] = test system: myc expression in LP1 cells; assay: myc mRNA expression by RT-qPCR; assay type: cell-based; conditions: 4 h treatment of LP1 cells with 1 μM compound
Description: For myc expression, 1x10^6 LP1 cells were plated the day prior to a 4 h treatment with compounds at a final DMSO concentration of 0.1 %. […]
In all cases, total
RNA was extracted using the NucleoSpin® RNA kit (Machery -Nagel) and used for cDNA synthesis with the High -Capacity cDNA Reverse Transcription kit (Applied Biosystems). RT-qPCR reactions were performed using PowerSYBR™ green PCR Master Mix (Applied Biosystems) and a LightCycler® 480 (Roche). cDNA was denatured for 10 min at 95 °C followed by 40 cycles of 15 s at 95 °C and 1 min at 60 °C. Cp values were determined as the maximum of the second derivative and target gene expression was compared to that of hprt from the same sample using the 2-ΔCp method. Gene expression was then normalized to the average of the control samples from the same day, or all biological replicates. […]

kinetic solubility = assay type: physicochemical; conditions: PBS buffer, aqueous buffer, kinetic from dmso stock, PBS pH 7.4, 37°C, ± st. dev. between technical replicates, read-out: Kin. Sol.
Description: Starting from an initial concentration of 100, 50 or 20 µM, a 2-fold serial dilution of the compound (10 mM stock in DMSO) was prepared in a mixture of ACN/Buffer (PBS, pH = 7.4) 2:8, with 1% DMSO. 350 µL was transferred to a 96-Well Plate (Greiner, UV-star) then UV absorption (240-400 nm, 10 nm steps) was measured. The absorption was blank-corrected and plotted against concentration. The wavelength (λ) providing the best fitting straight line […]
as §1, §2
Based on the known density of 12.5 % CAPTISOL® solution (d = 1.05755 g/mL at 25 °C), the precise weight of the resulting solution and so the required amount of water by weight was calculated. The water was added portion wise with agitation, vortexing and sonication cycles in between additions. The saturated solutions were then filtered (Millex-GV 13 mm, 0.22 µm). In duplicates, aliquots of the filtrates were taken and diluted with blank 12.5 % CAPTISOL® water solution in either a 1:14 (higher sol. compounds) or 1:7 (lower sol. compounds) ratio, 350 µL was transferred to a 96-Well Plate (Greiner, UV-star) then UV absorption (240-400 nm, 10 nm steps) was measured using a SpectraMax M5 (Molecular devices). The absorption was blank-corrected, compared to the calibration curve obtained during the solubility measurement method above and finally corrected for the dilution ratio to obtain the compound concentration in the saturated 12.5 % CAPTISOL® solution. The calculated concentrations are available in Table S4.
BROMOscan™ assays (provided by Eurofins DiscoverX, US)1,2 […]
coli host derived from the BL21 strain. E. coli were grown to log-phase and infected with T7 phage from a frozen stock (multiplicity of infection = 0.4) and incubated with shaking at 32°C until lysis (90-150 minutes). The lysates were centrifuged (5,000 x g) and filtered (0.2µm) to remove cell debris. Streptavidin-coated magnetic beads were treated with biotinylated small molecule or acetylated peptide ligands for 30 minutes at room temperature to generate affinity resins for bromodomain assays. The liganded beads were blocked with excess biotin and washed with blocking buffer (SeaBlock (Pierce), 1 % BSA, 0.05 % Tween 20, 1 mM DTT) to remove unbound ligand and to reduce non specific phage binding. Binding reactions were assembled by combining bromodomains, liganded affinity beads, and test compounds (see […]
Sodium azide, 7.4 mM DTT). All reactions were performed in polypropylene 384-well plates in a final volume of 0.02 mL. The assay plates were incubated at room temperature with […]
20). The beads were then resuspended in elution buffer (1x PBS, 0.05% Tween 20, 2 µM non-

Row | Structure (SMILES) | Kd (BRD4(1)) [µM] | myc mRNA expression [1] | solubility kinetic at 90 min (kinetic solubility) [µM]
1 | CC(=O)Nc1cc(NC(=O)c2ccco2)cc(C(=O)Nc2cccc3nnc(C)cc23)c1 [Compound 1] | 5.8 | not observed | 22.2 ± 1.3 (≈ 9.53 µg/mL)
2 | Cc1cc2c(NC(=O)c3cc(NC(=O)c4ccco4)cc(-c4ccn(C)n4)c3)cccc2nn1 [Compound 2] | 3.7 | significantly decrease myc expression levels | 3.2 ± 1.3 (≈ 1.45 µg/mL)
3 | Cc1cc2c(NC(=O)c3cc(NC(=O)[C@H]4CCCO4)cc(-c4ccn(C)n4)c3)cccc2nn1 [Compound 5] | 5.1 | significantly decreased the expression level of myc | 69.7 ± 0.6 (≈ 31.8 µg/mL)
